For series [1], the system named is HL-60 cells. Briefly: Cell viability assay (CellTiter-Glo). Type of series: cell-based. To be noted: Homo sapiens, 48 h incubation. Background: In ATP-based viability assays light output follows the ATP content of the culture.
Protocol: The cells were grown in RPMI 1640 Glutamax with 10% FCS, 100 µg/mL streptomycin and 100 U/mL Penicillin G and incubated in a 5% CO2 humidified atmosphere at 37 °C. For proliferation experiments, cells were seeded in 20 µL pro well into 384-well Greiner 384 CellStar® plates (Greiner Bio-One I. AG, Kremsmünster, AT). In addition to the test plates, one plate was prepared for the reference measurement at day zero. All plates were incubated for 24 h at 37 °C in a humidified atmosphere with 5% CO2. […] The final DMSO concentration in the assay was 0.5% v/v. The viability of the cells in the day zero control plates were determined on the same day without adding any compounds. The CellTiter-Glo® Viability Assay was used to determine the viability of cells using the standard protocol for this assay (Promega Corp., Madison, WI, USA). The luminescence signal was measured at the EnSpire® Multimode Plate Reader (PerkinElmer, Waltham, MA, USA). Test plates were incubated for further 48 h and the cell viability was defined as just described. Measured raw data were converted into percent of cell growth by using the high control (0.5% DMSO v/v without compound) and the day zero control. For dose-response studies, 11 different concentrations of compounds were tested in quadruplicates. The IC50 values were calculated using the 4-parameter logistic fit option of GraphPad Prism 5.
Series [2] has as its target PDGFRβ (Homo sapiens, UniProt P09619). The series can be described thus: 33PanQinase protein kinase activity assay. Type of series: biochemical. To be noted: recombinant kinase, 1 µM ATP.
Protocol: (§2) Protein kinase Assay. A proprietary protein kinase assay (^33PanQinase® Activity Assay) was used for measuring the kinase activity of the 24 protein kinases. All protein kinase assays were performed in 96-well FlashPlates™ (Perkin Elmer/NEN, Boston, MA, USA) in a 50 µL reaction volumes. Assays for all enzymes were performed in a solution containing 60 mM HEPES-NaOH, pH 7.5, 3 mM MgCl2, 3 mM MnCl2, 3 µM Na-orthovanadate, 1.2 mM DTT, 50 µg/mL PEG20000, 1 µM [γ-33P]-ATP (approx. 5 × 10^5 cpm per well), recombinant protein kinase (50–400 ng). Depending upon the kinase being assayed, appropriate substrates were used and were as follows (substrates shown in parentheses): AKT1 (GSK3/14-27), ARK5 (autophosphorylation), Aurora-A, Aurora-B (Tetra(LRRWSLG)), B-Raf-VE (MEK1 KM), CDK2/CycA (histone H1), CDK4/CycD1 (Rb-CTF), CK2-A1 (Casein), EGF-R, EPHB4, ERBB2, FAK, IGF1-R, SRC, VEGF-R2, VEGF-R3 (poly(Glu,Tyr) 4:1), FLT3, INS-R, MET, PDGFRβ (poly(Ala,Glu,Lys,Tyr) 6:2:5:1), PLK1 (Casein), SAK (autophosphorylation), TIE2 (poly(Glu,Tyr) 4:1), COT (autophosphorylation). The IC50 values were measured by testing 10 concentrations of compounds by single sampling. The final DMSO concentration in the assay was 1% (v/v). The data were fitted using the 4-parameter logistic fit option of GraphPad Prism 5.
Series [3] concerns TK 10, 786-0, M 14, and MCF-7 cell lines. Briefly: Cell viability assay (CellTiter-Glo), other cell lines. Type of series: cell-based. To be noted: TK 10, 786-0, M 14, MCF-7; 48 h; compared with HL-60. The procedure: In order to determine the cytotoxic profiles of compounds 5 and 8, they were evaluated in cell viability assays (Figure 7) including HL-60, a human myeloblastic leukemia cell line, as it has been shown that the proliferation and differentiation of these cells depend upon PDGFR-signalling. Cells were treated with compounds 5 and 8 and after 48 h incubation, their viability was determined. […] This is in line with the notion that HL-60 cells depend on PDGFR-signaling.
The cells were grown in RPMI 1640 Glutamax with 10% FCS, 100 µg/mL streptomycin and 100 U/mL Penicillin G and incubated in a 5% CO2 humidified atmosphere at 37 °C. For proliferation experiments, cells were seeded in 20 µL pro well into 384-well Greiner 384 CellStar® plates (Greiner Bio-One I. AG, Kremsmünster, AT). In addition to the test plates, one plate was prepared for the reference measurement at day zero. All plates were incubated for 24 h at 37 °C in a humidified atmosphere with 5% CO2. […] The viability of the cells in the day zero control plates were determined on the same day without adding any compounds. […] The luminescence signal was measured at the EnSpire® Multimode Plate Reader (PerkinElmer, Waltham, MA, USA). […] Measured raw data were converted into percent of cell growth by using the high control (0.5% DMSO v/v without compound) and the day zero control. […]

In series [4] the test system is bacterial methicillin-resistant Staphylococcus (MRSA-PK). The arrangement: method as in PMID 22030393. The following applies: cited from earlier work.
The target of series [5] is ARK5 (Homo sapiens, UniProt O60285). The series can be described thus: 33PanQinase protein kinase activity assay. Format: biochemical. To be noted: recombinant kinase, 1 µM ATP.
Protocol: (§3) The inhibitory profile of compounds was determined using the following 24 protein kinases (GenBankAcc.No. available on http://www.proqinase.com/pages/science [29]): AKT1, ARK5, Aurora-A, Aurora-B, B-Raf-VE, CDK2/CycA, CDK4/CycD1, CK2-A1, EGF-R, EPHB4, ERBB2, FAK, IGF1-R, SRC, VEGF-R2, VEGF-R3, FLT3, INS-R, MET, PDGFRβ, PLK1, SAK, TIE2 and COT. All protein kinases were expressed using human cDNAs in Sf9 insect cells as recombinat GST-fusion proteins or His-tagged proteins by means of the baculovirus expression system. Kinases were purified by affinity chromatography using either GSH-agarose (Sigma) or Ni-NTA-agarose (Qiagen). The purity and identity of each kinase was determined by SDS-PAGE/silver staining and western blot analysis using specific antibodies.
(§4) Protein kinase Assay. A proprietary protein kinase assay (^33PanQinase® Activity Assay) was used for measuring the kinase activity of the 24 protein kinases. All protein kinase assays were performed in 96-well FlashPlates™ (Perkin Elmer/NEN, Boston, MA, USA) in a 50 µL reaction volumes. Assays for all enzymes were performed in a solution containing 60 mM HEPES-NaOH, pH 7.5, 3 mM MgCl2, 3 mM MnCl2, 3 µM Na-orthovanadate, 1.2 mM DTT, 50 µg/mL PEG20000, 1 µM [γ-33P]-ATP (approx. 5 × 10^5 cpm per well), recombinant protein kinase (50–400 ng). […] The IC50 values were measured by testing 10 concentrations of compounds by single sampling. […]
In series [6] the target is Aurora-B (Homo sapiens, UniProt Q96GD4). The series can be described thus: 33PanQinase protein kinase activity assay. The following applies: recombinant kinase, 1 µM ATP. Format: biochemical.
For series [7], the target named is IGF1R (Homo sapiens, UniProt P08069). Briefly: 33PanQinase protein kinase activity assay. Type of series: biochemical. The following applies: recombinant kinase, 1 µM ATP.
Protocol: as §2
For series [8], the target named is PLK1 (Homo sapiens, UniProt P53350). The series can be described thus: 33PanQinase protein kinase activity assay. Format: biochemical. To be noted: recombinant kinase, 1 µM ATP. From the text:
(§1) Recombinant protein kinases.

For series [9], the target named is CK2a1 (Homo sapiens, UniProt P68400). Briefly: 33PanQinase protein kinase activity assay. Type of series: biochemical. The following applies: recombinant kinase, 1 µM ATP.
CK2a1, sequence (P68400 whole entry): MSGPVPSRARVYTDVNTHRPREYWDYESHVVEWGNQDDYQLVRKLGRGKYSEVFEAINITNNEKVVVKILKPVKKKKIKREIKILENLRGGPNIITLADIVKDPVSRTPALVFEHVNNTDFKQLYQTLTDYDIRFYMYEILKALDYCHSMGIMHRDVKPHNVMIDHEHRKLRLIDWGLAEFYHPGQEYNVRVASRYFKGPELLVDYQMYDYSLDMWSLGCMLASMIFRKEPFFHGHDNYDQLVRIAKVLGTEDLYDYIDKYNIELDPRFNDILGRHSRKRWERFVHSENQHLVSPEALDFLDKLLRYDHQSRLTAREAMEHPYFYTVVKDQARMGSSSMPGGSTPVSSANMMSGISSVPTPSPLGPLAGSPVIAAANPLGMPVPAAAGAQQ
From the text: as §1

In series [10] the target is VEGF-R3 (Homo sapiens, UniProt P35916). Briefly: 33PanQinase protein kinase activity assay. The following applies: recombinant kinase, 1 µM ATP. Format: biochemical.
VEGF-R3, sequence (P35916 25-1363): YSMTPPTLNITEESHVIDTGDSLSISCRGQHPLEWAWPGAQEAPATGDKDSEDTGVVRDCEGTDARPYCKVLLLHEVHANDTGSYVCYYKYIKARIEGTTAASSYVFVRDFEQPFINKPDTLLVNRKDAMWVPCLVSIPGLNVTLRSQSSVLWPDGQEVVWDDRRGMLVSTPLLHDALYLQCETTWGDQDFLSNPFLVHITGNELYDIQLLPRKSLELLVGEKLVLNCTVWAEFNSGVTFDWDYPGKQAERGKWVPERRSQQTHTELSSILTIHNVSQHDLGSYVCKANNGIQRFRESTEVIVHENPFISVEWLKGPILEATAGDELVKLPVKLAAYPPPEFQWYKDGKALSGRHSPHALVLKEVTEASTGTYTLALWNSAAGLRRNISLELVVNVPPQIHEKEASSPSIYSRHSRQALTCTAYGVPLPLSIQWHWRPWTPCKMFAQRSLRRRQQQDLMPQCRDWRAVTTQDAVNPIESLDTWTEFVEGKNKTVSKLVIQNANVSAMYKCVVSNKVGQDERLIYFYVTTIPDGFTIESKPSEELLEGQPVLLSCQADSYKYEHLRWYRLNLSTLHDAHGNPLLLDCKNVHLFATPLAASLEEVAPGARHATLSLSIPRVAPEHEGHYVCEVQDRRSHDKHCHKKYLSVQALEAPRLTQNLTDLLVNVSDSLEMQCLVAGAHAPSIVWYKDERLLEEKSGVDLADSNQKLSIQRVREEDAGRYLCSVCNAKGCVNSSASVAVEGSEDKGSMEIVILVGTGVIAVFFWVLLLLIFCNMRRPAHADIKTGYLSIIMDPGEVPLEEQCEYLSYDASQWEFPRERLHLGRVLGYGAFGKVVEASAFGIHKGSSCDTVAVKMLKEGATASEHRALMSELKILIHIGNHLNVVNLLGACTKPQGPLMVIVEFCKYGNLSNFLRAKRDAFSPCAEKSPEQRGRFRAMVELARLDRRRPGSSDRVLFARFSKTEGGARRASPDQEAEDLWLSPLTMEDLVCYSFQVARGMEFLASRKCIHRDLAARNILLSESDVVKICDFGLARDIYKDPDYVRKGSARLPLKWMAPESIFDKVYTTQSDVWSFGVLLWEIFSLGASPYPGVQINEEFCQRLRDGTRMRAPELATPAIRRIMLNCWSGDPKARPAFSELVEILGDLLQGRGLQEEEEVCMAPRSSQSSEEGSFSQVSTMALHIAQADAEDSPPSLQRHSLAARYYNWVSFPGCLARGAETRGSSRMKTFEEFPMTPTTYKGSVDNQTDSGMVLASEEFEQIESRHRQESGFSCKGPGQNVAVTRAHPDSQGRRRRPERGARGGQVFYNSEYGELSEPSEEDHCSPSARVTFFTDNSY
From the text: as §1

Series [11] has as its target ERBB2 (Homo sapiens, UniProt P04626). Briefly: 33PanQinase protein kinase activity assay. Type of series: biochemical. The following applies: recombinant kinase, 1 µM ATP.
From the text: as §1

Series [12] has as its target SAK (Homo sapiens, UniProt O00444). The series can be described thus: 33PanQinase protein kinase activity assay. Type of series: biochemical. The following applies: recombinant kinase, 1 µM ATP.
From the text: as §1

Series [13] concerns the target B-RAF-VE (Homo sapiens, UniProt P15056, V600E). Briefly: 33PanQinase protein kinase activity assay. Type of series: biochemical. To be noted: recombinant kinase, 1 µM ATP.
From the text: as §1

The target of series [14] is MET (Homo sapiens, UniProt P08581). Briefly: 33PanQinase protein kinase activity assay. Type of series: biochemical. The following applies: recombinant kinase, 1 µM ATP.
From the text: as §1

Series [15] addresses COT (Homo sapiens, UniProt P41279). The series can be described thus: 33PanQinase protein kinase activity assay. Format: biochemical. To be noted: recombinant kinase, 1 µM ATP.
From the text: as §1

The target of series [16] is VEGF-R2 (Homo sapiens, UniProt P35968). The series can be described thus: 33PanQinase protein kinase activity assay. To be noted: recombinant kinase, 1 µM ATP. Format: biochemical.
From the text: as §1

Series [17] deals with FLT3 (Homo sapiens, UniProt P36888). Briefly: 33PanQinase protein kinase activity assay. Type of series: biochemical. The following applies: recombinant kinase, 1 µM ATP.
From the text: as §1

In series [18] the target is AKT1 (Homo sapiens, UniProt P31749). The series can be described thus: 33PanQinase protein kinase activity assay. Type of series: biochemical. The following applies: recombinant kinase, 1 µM ATP.
Protocol: as §2
Series [19] deals with INSR (Homo sapiens, UniProt P06213). The series can be described thus: 33PanQinase protein kinase activity assay. Type of series: biochemical. The following applies: recombinant kinase, 1 µM ATP.
Protocol: as §3, §4
Series [20] has as its target TIE2 (Homo sapiens, UniProt Q02763). Briefly: 33PanQinase protein kinase activity assay. Type of series: biochemical. To be noted: recombinant kinase, 1 µM ATP.
Protocol: as §3, §4
Series [21] addresses EGFR (Homo sapiens, UniProt P00533). Briefly: biochemical.
Series [22] addresses EPHB4 (Homo sapiens, UniProt P54760). The series can be described thus: 33PanQinase protein kinase activity assay. Format: biochemical. The following applies: recombinant kinase, 1 µM ATP.
Protocol: as §2
In series [23] the target is SRC (Homo sapiens, UniProt P12931). Briefly: 33PanQinase protein kinase activity assay. To be noted: recombinant kinase, 1 µM ATP. Format: biochemical.
Protocol: as §2
Series [24] addresses FAK (Homo sapiens, UniProt Q05397). Briefly: 33PanQinase protein kinase activity assay. The following applies: recombinant kinase, 1 µM ATP. Type of series: biochemical.
Protocol: Recombinant protein kinases. The inhibitory profile of compounds was determined using the following 24 protein kinases (GenBankAcc.No. available on http://www.proqinase.com/pages/science [29]): AKT1, ARK5, Aurora-A, Aurora-B, B-Raf-VE, CDK2/CycA, CDK4/CycD1, CK2-A1, EGF-R, EPHB4, ERBB2, FAK, IGF1-R, SRC, VEGF-R2, VEGF-R3, FLT3, INS-R, MET, PDGFRβ, PLK1, SAK, TIE2 and COT. All protein kinases were expressed using human cDNAs in Sf9 insect cells as recombinat GST-fusion proteins or His-tagged proteins by means of the baculovirus expression system. Kinases were purified by affinity chromatography using either GSH-agarose (Sigma) or Ni-NTA-agarose (Qiagen). The purity and identity of each kinase was determined by SDS-PAGE/silver staining and western blot analysis using specific antibodies.
Protein kinase Assay. A proprietary protein kinase assay (^33PanQinase® Activity Assay) was used for measuring the kinase activity of the 24 protein kinases. All protein kinase assays were performed in 96-well FlashPlates™ (Perkin Elmer/NEN, Boston, MA, USA) in a 50 µL reaction volumes. […] The IC50 values were measured by testing 10 concentrations of compounds by single sampling. […]
Series [25] deals with Aurora-A (Homo sapiens, UniProt O14965). The series can be described thus: 33PanQinase protein kinase activity assay. Type of series: biochemical. The following applies: recombinant kinase, 1 µM ATP.
Protocol: as §3, §4
Series [26] concerns the target CDK2/CycA (Homo sapiens, UniProt P24941). Briefly: 33PanQinase protein kinase activity assay. Type of series: biochemical. To be noted: recombinant kinase, 1 µM ATP.
Series [27] has as its target CDK4/CycD1 (Homo sapiens, UniProt P11802). Briefly: 33PanQinase protein kinase activity assay. Type of series: biochemical. The following applies: recombinant kinase, 1 µM ATP.

This is an account of results in publication PMC3806475, “Marine Derived Hamacanthins as Lead for the Development of Novel PDGFRβ Protein Kinase Inhibitors” (Marine Drugs, 2013).

Bounds are passed on as bounds.

By IC50 is commonly meant the point on the concentration scale where inhibition reaches its midpoint.

PDGFRβ, sequence (P09619 33-1106): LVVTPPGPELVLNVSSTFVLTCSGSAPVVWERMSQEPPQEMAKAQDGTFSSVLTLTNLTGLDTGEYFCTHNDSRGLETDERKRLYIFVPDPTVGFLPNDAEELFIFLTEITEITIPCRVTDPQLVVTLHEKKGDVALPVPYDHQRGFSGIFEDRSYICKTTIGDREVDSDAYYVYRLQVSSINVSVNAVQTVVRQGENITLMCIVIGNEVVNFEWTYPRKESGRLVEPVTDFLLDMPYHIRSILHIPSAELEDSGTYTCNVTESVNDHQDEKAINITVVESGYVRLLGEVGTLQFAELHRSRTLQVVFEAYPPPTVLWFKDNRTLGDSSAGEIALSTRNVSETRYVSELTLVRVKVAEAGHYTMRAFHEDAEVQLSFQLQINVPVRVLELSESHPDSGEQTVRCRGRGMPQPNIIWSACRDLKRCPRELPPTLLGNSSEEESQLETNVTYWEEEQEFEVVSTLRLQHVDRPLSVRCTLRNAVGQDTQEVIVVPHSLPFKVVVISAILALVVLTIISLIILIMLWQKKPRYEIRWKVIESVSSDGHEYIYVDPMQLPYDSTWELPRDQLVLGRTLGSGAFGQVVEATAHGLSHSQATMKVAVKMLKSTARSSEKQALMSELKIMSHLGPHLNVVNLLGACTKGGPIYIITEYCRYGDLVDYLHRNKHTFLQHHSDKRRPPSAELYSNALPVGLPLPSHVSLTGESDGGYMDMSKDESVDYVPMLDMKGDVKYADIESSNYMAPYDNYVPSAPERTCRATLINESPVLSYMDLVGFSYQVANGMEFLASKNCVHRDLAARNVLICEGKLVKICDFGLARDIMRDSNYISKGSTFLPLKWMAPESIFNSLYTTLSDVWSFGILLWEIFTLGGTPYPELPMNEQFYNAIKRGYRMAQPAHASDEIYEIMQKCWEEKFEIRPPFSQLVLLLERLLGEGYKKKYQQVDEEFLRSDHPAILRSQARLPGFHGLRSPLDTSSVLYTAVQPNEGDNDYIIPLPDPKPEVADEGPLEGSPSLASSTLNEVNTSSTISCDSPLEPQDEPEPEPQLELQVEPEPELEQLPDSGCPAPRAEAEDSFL
COT, sequence (P41279 whole entry): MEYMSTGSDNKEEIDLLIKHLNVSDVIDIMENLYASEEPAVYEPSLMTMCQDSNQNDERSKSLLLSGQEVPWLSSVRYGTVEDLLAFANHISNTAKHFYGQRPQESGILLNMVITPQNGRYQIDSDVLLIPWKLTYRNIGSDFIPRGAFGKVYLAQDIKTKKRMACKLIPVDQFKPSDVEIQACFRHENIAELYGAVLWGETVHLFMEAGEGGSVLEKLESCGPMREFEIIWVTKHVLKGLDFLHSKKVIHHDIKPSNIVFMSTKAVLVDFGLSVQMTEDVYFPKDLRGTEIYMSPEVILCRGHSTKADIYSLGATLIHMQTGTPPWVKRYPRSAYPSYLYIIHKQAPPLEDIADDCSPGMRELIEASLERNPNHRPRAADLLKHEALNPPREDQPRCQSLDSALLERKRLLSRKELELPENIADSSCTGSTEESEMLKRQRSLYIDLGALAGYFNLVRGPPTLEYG
SAK, sequence (O00444 whole entry): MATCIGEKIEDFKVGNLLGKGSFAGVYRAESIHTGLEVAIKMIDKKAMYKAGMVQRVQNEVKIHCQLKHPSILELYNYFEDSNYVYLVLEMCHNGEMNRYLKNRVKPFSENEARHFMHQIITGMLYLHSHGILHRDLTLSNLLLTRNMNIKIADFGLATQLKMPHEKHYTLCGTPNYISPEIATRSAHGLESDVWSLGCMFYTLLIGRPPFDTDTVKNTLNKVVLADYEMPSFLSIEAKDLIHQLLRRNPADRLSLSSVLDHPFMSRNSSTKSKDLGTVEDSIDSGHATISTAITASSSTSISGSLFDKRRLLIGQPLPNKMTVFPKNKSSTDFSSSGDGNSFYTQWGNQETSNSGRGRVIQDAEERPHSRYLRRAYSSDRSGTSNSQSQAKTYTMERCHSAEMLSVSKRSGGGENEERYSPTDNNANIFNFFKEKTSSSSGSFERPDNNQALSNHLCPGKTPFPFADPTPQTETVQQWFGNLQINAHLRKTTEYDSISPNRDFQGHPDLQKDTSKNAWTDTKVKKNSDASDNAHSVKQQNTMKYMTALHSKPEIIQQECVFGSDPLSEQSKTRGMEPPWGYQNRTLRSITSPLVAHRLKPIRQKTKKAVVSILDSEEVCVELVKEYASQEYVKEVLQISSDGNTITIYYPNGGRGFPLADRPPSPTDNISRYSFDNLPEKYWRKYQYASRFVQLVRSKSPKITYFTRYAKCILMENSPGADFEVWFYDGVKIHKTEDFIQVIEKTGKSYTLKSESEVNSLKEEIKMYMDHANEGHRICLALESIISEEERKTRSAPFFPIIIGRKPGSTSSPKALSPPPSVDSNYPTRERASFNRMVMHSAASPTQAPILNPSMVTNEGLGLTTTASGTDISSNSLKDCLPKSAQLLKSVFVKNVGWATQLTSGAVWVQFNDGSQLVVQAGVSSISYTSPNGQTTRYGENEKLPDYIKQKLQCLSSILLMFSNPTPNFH
B-RAF-VE, sequence (P15056 whole entry V600E): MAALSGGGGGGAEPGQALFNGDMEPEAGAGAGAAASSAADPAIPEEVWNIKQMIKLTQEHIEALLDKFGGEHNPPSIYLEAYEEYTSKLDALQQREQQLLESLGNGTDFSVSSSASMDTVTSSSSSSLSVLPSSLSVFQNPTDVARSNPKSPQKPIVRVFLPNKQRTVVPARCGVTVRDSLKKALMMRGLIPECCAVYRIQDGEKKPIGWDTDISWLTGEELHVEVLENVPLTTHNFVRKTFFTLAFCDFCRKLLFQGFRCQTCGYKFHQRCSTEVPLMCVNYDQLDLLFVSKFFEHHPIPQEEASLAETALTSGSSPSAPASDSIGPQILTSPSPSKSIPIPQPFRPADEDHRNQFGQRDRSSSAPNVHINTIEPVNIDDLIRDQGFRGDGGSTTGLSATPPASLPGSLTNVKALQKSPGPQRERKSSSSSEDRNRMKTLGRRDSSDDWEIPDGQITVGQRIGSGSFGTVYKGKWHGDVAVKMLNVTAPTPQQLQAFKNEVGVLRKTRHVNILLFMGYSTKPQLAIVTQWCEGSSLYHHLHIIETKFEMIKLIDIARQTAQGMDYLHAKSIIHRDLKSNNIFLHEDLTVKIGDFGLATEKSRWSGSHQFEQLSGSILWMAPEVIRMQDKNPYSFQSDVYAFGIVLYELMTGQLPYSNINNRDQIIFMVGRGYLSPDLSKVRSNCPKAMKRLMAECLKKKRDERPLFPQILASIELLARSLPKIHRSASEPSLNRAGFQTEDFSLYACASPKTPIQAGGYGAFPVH

Take `COc1cc(-c2nc(-c3c[nH]c4ccc(O)cc34)c[nH]c2=O)cc(OC)c1OC` [Compound 8, 5-(5-hydroxy-1H-indole-3-yl)-3-(3,4,5-trimethoxyphenyl)pyrazin-2(1H)-one]: the IC50 in [1] was 30 µM; in series [2] it was 0.3 µM. Also, the “cytotoxic effect on the other cells tested” value in series [3] was “significantly less affected”.

For `COc1ccc(-c2nc(-c3c[nH]c4ccccc34)c[nH]c2=O)cc1OC` [Compound 6, 3-(3,4-dimethoxyphenyl)-5-(1H-indol-3-yl)-1H-pyrazin-2-one], the half-maximal inhibitory concentration (IC50) in [2] worked out at 1.5 µM.

Turning to `COc1ccc(-c2nc(-c3c[nH]c4ccccc34)c[nH]c2=O)cc1` [Compound 7, 3-(4-methoxyphenyl)-5-(1H-indol-3-yl)-1H-pyrazin-2-one], the IC50 in series [2] is 19 µM.

In the case of `O=C1NC[C@@H](c2c[nH]c3cc(Br)ccc23)N[C@H]1c1c[nH]c2cc(Br)ccc12` [cis-3,4-dihydro hamacanthin B], the IC50 in [4] is 0.016 µM.

For `COc1cc(-c2nc(-c3c[nH]c4ccccc34)c[nH]c2=O)cc(OC)c1OC` [Compound 5, 5-(1H-indole-3-yl)-3-(3,4,5-trimethoxyphenyl)pyrazin-2(1H)-one], the IC50 in series [5] was over 100 µM; in series [6], over 100 µM; in [7] it was over 100 µM; in [8], over 100 µM; in series [9], over 100 µM; in [10] it was 5 µM. In addition, the IC50 is over 100 µM in series [11]; over 100 µM in [12]; over 100 µM in series [13]; over 100 µM in series [14]; over 100 µM in series [15]; 4 µM in series [16]. Moreover, the half-inhibitory concentration (IC50) is 36 µM in series [17]; over 100 µM in series [18]; over 100 µM in series [19]; over 100 µM in series [20]; over 100 µM in series [21]; over 100 µM in [22]. The IC50 in series [23] is over 100 µM; in series [2], 0.5 µM; in series [24], over 100 µM; in [25], over 100 µM. Besides, the “IC50 (µM) VEGF-R3” value in series [10] is recorded as “low µM range”. For the same compound, the “cytotoxic effect on the other cells tested” value in [3] is “significantly less affected”.

With “3-(indole-3-yl)-4-(3,4,5-trimethoxyphenyl)-1H-pyrrole-2,5-dione [Compound 1, reference compound]”, the 50% inhibitory concentration (IC50) was 66 µM in [26]; 66 µM in series [6]; over 100 µM in series [8]; over 100 µM in [9]; 0.037 µM in series [10]; 51 µM in series [11]. Further, the IC50 in series [12] was 10 µM; in series [13] it was over 100 µM; in [14] it was 60 µM; in series [15] it was 32 µM; in series [17] it was 61 µM; in [27] it was 56 µM.
